Drawing on ChEMBL document CHEMBL5291721, “A preclinical secondary pharmacology resource illuminates target-adverse drug reaction associations of marketed drugs” (Nat Commun, 2023), this text covers AC50 for seven molecules.

In one assay the target is T1, Adenosine receptor A1 (Homo sapiens, UniProt P30542).
T1 sequence (P30542 whole entry): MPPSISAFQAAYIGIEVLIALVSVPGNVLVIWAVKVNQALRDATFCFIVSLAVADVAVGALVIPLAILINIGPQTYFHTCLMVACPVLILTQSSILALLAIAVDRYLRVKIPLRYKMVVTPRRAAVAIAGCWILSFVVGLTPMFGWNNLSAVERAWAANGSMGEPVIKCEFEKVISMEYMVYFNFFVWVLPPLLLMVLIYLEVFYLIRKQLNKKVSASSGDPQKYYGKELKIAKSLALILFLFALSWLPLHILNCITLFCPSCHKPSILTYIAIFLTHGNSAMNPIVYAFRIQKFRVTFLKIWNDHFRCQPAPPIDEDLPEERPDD

In assay [1] the target is T2, Alpha-1A adrenergic receptor (Homo sapiens, UniProt P35348).
T2 sequence (P35348 whole entry): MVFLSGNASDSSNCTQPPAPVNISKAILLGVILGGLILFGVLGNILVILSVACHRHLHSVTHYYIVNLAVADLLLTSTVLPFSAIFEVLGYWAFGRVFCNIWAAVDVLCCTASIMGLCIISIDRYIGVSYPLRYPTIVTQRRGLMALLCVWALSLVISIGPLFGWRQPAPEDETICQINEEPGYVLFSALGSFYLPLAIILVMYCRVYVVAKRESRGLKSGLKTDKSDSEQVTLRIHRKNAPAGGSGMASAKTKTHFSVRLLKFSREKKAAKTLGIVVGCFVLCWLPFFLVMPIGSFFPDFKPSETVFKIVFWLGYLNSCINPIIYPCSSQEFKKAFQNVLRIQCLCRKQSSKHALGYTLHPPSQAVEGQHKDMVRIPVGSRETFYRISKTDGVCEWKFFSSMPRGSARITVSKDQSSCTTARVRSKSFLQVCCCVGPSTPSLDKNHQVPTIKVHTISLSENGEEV
Type of assay: functional, cell-based.

Assay [2] addresses T3, Alpha-2B adrenergic receptor (Homo sapiens, UniProt P18089).
T3 sequence (P18089 whole entry): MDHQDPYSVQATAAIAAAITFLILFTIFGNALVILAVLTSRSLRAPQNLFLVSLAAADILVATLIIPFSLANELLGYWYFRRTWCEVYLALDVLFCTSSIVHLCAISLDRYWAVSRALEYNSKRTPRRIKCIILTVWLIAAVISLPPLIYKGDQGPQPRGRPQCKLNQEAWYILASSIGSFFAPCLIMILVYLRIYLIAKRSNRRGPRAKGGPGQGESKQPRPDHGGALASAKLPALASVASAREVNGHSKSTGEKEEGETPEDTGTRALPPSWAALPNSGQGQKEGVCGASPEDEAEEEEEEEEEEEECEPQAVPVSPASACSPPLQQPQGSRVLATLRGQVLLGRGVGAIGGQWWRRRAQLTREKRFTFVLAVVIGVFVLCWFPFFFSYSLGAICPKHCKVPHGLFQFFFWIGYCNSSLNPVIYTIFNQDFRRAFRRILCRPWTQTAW

In assay [3] the target is Beta-1 adrenergic receptor (Homo sapiens, UniProt P08588). Format: functional.
Assay [4] has as its target Muscarinic acetylcholine receptor M3 (Homo sapiens, UniProt P20309).
Assay [5] concerns the target Neuronal acetylcholine receptor subunit alpha-4 (Homo sapiens, UniProt P43681).
Assay [6] has as its target Gamma-aminobutyric acid receptor subunit alpha-1 (Rattus norvegicus, UniProt P62813). Format: functional.
Assay [7] addresses T4, 5-hydroxytryptamine receptor 1A (Homo sapiens, UniProt P08908).
T4 sequence (P08908 whole entry): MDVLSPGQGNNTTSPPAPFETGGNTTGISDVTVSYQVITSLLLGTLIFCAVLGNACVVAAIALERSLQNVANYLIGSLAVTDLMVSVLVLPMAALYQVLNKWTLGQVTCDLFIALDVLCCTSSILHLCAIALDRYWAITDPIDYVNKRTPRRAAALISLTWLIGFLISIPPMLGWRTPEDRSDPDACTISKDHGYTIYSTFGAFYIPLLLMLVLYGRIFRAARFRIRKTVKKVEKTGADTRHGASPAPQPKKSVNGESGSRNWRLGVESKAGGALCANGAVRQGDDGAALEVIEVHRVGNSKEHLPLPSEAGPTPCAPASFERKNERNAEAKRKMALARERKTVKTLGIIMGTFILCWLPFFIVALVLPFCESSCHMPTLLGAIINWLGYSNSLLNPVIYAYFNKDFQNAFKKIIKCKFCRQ
Type of assay: functional, cell-based.

Assay [8] deals with 5-hydroxytryptamine receptor 2B (Homo sapiens, UniProt P41595). Type of assay: functional, cell-based.
Sequence of 5-hydroxytryptamine receptor 2B (P41595 whole entry): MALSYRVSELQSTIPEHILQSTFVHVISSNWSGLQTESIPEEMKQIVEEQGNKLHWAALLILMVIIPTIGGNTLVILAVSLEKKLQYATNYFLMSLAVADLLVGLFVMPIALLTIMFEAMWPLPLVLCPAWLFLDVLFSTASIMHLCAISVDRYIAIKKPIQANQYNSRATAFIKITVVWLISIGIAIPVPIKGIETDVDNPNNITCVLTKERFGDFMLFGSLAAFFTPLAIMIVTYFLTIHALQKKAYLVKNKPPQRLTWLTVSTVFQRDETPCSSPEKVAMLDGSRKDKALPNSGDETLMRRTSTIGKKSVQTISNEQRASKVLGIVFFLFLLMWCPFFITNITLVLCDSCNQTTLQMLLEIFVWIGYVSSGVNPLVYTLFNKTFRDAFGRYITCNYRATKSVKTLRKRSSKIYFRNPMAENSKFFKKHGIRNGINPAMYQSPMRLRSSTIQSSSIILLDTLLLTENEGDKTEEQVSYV
Another assay has as its target Melanocortin receptor 3 (Homo sapiens, UniProt P41968).
Assay [9] has as its target Delta-type opioid receptor (Homo sapiens, UniProt P41143).
The target in assay [10] is T5, Prostaglandin G/H synthase 1 (Rattus norvegicus, UniProt Q63921).
T5 sequence (Q63921 whole entry): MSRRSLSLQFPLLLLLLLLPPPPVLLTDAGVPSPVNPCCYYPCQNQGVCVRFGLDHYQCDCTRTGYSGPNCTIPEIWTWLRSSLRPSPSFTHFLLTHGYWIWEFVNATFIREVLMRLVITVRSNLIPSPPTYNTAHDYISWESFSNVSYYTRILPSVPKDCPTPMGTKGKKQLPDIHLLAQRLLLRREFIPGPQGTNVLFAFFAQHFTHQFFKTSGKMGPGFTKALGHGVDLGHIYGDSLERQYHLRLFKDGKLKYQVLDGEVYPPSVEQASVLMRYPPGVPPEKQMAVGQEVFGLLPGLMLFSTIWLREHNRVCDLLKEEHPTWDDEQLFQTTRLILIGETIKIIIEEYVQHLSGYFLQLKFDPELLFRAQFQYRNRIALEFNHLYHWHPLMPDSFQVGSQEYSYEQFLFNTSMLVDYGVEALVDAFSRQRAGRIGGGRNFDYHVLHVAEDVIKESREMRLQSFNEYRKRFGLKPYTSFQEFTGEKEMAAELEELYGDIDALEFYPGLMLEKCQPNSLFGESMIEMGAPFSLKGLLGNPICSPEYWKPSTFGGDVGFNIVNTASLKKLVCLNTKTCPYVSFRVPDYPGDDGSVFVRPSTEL
Format: functional.

The target of another assay is Histamine H3 receptor (Homo sapiens, UniProt Q9Y5N1).
For assay [11], the target named is Beta-2 adrenergic receptor (Homo sapiens, UniProt P07550).
For assay [12], the target named is Voltage-dependent L-type calcium channel subunit alpha-1C (Rattus norvegicus, UniProt P22002). Type of assay: functional.
Sequence of Voltage-dependent L-type calcium channel subunit alpha-1C (P22002 whole entry): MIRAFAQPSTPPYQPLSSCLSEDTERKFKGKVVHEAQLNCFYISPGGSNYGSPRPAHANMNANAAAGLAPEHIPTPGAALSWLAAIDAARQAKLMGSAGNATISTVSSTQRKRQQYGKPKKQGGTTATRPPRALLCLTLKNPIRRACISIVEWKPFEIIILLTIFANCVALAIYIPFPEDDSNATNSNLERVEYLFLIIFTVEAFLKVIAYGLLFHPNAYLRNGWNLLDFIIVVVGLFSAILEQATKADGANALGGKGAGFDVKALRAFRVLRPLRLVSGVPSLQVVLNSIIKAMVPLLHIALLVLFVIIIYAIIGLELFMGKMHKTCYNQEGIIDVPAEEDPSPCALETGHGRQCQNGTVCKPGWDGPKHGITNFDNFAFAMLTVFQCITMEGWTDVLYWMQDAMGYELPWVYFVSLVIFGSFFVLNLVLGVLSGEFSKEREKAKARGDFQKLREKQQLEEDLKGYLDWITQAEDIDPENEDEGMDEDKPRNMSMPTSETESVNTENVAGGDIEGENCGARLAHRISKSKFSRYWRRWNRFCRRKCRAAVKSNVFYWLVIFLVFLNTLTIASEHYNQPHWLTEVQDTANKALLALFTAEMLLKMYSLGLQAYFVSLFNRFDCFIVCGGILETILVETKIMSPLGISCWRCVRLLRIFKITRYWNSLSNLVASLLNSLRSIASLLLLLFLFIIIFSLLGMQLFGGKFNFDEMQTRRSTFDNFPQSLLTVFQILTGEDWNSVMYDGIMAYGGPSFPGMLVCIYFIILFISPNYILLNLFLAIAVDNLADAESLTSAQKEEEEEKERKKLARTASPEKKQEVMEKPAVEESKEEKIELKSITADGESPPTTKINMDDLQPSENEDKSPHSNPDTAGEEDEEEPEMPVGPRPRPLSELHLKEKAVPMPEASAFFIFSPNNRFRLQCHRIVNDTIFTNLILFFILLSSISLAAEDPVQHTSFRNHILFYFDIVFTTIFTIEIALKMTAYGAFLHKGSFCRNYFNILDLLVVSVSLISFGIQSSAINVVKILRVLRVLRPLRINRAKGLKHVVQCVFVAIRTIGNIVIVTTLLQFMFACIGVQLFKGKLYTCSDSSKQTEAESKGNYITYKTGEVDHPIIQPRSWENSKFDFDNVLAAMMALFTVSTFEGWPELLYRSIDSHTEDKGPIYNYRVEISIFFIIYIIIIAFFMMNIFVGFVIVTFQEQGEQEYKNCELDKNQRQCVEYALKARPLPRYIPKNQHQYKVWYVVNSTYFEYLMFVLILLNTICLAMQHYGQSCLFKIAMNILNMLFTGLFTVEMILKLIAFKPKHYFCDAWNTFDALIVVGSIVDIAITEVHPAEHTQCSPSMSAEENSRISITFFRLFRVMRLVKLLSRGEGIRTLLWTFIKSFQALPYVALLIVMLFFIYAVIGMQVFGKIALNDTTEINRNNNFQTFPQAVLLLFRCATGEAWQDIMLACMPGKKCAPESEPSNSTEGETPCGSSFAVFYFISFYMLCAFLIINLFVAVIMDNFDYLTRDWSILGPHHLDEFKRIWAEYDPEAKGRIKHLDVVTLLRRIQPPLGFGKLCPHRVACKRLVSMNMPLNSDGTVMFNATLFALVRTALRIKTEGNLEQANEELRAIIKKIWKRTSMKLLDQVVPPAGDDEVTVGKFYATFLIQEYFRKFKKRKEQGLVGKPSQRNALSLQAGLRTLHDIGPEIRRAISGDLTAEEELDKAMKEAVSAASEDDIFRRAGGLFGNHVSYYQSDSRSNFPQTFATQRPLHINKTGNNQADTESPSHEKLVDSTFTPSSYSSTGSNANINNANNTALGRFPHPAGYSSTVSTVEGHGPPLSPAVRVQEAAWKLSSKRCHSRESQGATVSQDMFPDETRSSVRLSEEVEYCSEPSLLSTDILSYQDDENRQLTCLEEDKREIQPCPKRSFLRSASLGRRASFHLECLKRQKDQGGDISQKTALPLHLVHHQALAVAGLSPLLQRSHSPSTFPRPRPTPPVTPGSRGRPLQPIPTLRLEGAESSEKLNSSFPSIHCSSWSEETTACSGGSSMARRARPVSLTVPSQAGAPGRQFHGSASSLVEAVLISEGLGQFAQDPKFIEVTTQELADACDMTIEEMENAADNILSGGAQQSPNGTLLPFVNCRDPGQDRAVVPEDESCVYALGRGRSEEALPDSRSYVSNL
Note: assay procedure not described here.

Sequence of Neuronal acetylcholine receptor subunit alpha-4 (P43681 whole entry): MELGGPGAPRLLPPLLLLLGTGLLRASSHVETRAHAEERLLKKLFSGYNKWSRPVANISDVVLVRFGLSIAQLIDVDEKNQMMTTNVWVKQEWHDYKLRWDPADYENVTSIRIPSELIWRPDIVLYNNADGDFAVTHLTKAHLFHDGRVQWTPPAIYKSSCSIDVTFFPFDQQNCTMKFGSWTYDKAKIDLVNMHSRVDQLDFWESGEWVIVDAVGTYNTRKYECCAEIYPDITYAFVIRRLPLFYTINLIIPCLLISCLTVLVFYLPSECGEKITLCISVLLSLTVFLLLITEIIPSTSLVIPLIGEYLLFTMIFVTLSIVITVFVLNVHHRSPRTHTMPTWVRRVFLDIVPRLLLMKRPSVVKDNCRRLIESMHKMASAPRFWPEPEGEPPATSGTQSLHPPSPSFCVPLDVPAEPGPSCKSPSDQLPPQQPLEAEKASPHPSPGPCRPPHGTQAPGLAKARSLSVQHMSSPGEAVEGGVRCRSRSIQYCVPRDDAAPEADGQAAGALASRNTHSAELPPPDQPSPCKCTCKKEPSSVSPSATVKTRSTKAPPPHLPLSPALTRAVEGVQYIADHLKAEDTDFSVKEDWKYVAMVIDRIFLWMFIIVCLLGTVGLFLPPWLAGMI
Sequence of Delta-type opioid receptor (P41143 whole entry): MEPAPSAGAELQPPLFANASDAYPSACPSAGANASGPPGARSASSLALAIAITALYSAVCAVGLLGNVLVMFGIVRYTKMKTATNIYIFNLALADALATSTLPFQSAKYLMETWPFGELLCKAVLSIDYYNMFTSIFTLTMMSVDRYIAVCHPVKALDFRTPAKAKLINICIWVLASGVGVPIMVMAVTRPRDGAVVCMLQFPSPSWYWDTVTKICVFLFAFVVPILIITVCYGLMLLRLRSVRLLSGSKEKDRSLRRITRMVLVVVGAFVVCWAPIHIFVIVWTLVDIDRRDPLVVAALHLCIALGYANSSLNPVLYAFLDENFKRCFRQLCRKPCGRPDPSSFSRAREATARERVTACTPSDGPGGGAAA
Sequence of Muscarinic acetylcholine receptor M3 (P20309 whole entry): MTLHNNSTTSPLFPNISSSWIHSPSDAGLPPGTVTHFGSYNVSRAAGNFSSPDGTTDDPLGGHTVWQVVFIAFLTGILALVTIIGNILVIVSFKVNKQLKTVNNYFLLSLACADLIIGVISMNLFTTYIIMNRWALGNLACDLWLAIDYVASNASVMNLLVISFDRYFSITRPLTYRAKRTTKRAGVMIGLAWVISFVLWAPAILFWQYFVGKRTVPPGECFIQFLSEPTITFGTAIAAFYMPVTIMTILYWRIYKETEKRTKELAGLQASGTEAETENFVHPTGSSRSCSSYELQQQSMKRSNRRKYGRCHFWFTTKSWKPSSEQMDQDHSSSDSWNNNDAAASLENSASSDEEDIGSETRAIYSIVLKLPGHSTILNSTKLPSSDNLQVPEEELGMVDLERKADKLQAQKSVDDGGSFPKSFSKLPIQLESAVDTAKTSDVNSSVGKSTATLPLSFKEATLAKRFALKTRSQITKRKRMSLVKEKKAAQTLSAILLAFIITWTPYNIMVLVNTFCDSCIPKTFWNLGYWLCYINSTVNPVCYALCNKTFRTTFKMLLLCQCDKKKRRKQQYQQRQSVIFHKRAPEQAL
Sequence of Gamma-aminobutyric acid receptor subunit alpha-1 (P62813 whole entry): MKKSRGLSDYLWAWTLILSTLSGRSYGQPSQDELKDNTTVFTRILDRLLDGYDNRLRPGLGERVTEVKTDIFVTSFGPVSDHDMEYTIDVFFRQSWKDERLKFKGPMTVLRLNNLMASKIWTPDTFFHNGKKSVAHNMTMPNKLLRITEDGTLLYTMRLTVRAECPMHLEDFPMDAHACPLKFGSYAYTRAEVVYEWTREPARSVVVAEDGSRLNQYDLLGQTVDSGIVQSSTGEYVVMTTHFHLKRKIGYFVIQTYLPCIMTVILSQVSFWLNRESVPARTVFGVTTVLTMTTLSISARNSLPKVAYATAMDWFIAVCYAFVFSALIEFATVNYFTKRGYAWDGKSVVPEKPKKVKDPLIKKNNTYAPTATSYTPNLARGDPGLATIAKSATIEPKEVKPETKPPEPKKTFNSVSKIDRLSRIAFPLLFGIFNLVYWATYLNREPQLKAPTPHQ
Sequence of Melanocortin receptor 3 (P41968 whole entry): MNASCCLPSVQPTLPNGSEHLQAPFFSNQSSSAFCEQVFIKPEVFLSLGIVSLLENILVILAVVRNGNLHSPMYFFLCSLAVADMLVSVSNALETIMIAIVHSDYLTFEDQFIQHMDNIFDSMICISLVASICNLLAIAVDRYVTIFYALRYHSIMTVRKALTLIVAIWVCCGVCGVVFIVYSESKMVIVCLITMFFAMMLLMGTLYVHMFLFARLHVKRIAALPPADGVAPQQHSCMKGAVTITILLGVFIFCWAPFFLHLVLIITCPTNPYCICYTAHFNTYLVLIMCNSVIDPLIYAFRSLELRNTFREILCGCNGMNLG

For the molecule `CC[C@@H](C(N)=O)N1CCCC1=O`, the AC50 (at Adenosine receptor A1; in assay [1]; in assay [2]; in assay [3]; in assay [4]; in assay [5]) was above 30 µM each time. Moreover, the half-maximal activity concentration (AC50) (in assay [6]; in assay [7]; in assay [8]; at Melanocortin receptor 3; in [9]; in assay [10]) was above 30 µM throughout. In addition, the AC50 on Histamine H3 receptor was above 30 µM.

For `CN1CCN(C2=Nc3ccccc3Sc3ccc(Cl)cc32)CC1` [CLOTHIAPINE], the AC50 was above 30 µM in assay [1]; 1.3 µM in [2]; 2 µM in [4]; above 30 µM in assay [6]; above 30 µM in assay [7]; above 30 µM in [8]. This molecule also came in with an AC50 in [9] of 22 µM.

Take `CN(C)CCC=C1c2ccccc2C=Cc2ccccc21` [CYCLOBENZAPRINE]: the AC50 was above 30 µM at Adenosine receptor A1; above 30 µM in assay [1]; above 10 µM in assay [2]; above 10 µM in [3]; above 10 µM in [11]; above 10 µM in assay [12]. Besides, the AC50 in assay [4] is 0.35 µM; in assay [5] it was above 10 µM; in [6], above 10 µM; in assay [7], above 10 µM; in assay [8], above 10 µM; at Melanocortin receptor 3, above 30 µM. Also, the AC50 in assay [9] is above 30 µM; in assay [10] it was above 30 µM; at Histamine H3 receptor, above 10 µM.

Turning to `COc1ccc(C(=O)Nc2ccccc2CCC2CCCCN2C)cc1` (stereo unspecified) [ENCAINIDE], the AC50 at Adenosine receptor A1 is above 30 µM; in [1], above 30 µM; in assay [2], above 10 µM; in assay [3], above 10 µM; in assay [11] it was above 10 µM; in [12], above 10 µM. Moreover, the AC50 in [4] was above 10 µM; in assay [5], above 10 µM; in assay [6], above 10 µM; in assay [7], above 10 µM; in assay [8] it was above 10 µM; at Melanocortin receptor 3, above 30 µM. Moreover, the AC50 in assay [9] was above 30 µM; in assay [10], above 30 µM; on Histamine H3 receptor it was above 10 µM.

`COc1ccccc1N1CCN(CC(O)COc2cccc3ccccc23)CC1` (stereo unspecified) [NAFTOPIDIL]: the AC50 is above 30 µM in [1]; 0.3 µM in assay [2]; 1.1 µM in assay [3]; 6.3 µM in assay [12]; above 30 µM in [4]; above 10 µM in assay [5]. Further, the AC50 in [6] was above 30 µM; in [7], above 30 µM; in assay [8], above 30 µM; at Melanocortin receptor 3, above 30 µM; in assay [9] it was 12 µM; in [10] it was above 30 µM.

As to `COC1=C(OC)C(=O)C(C/C=C(\C)CC/C=C(\C)CC/C=C(\C)CC/C=C(\C)CC/C=C(\C)CC/C=C(\C)CC/C=C(\C)CC/C=C(\C)CC/C=C(\C)CCC=C(C)C)=C(C)C1=O` [UBIDECARENONE], the AC50 in [1], in [2], in assay [4], in assay [6], in assay [7] and in [8] was above 30 µM each time. In assay [9], this molecule came in with an AC50 above 30 µM.

Regarding `CN(C)CCc1c[nH]c2ccc(C[C@H]3COC(=O)N3)cc12` [ZOLMITRIPTAN], the AC50 is above 30 µM at Adenosine receptor A1; 14 µM in assay [1]; above 30 µM in assay [2]; above 30 µM in assay [3]; above 30 µM in [4]; above 30 µM in assay [5]. The AC50 was above 30 µM in assay [6]; above 30 µM in [8]; above 30 µM at Melanocortin receptor 3; above 10 µM in assay [9]; above 30 µM in assay [10]; above 30 µM on Histamine H3 receptor.
